In patent US10450297B2, “Sulfonyl amide derivatives for the treatment of abnormal cell growth” (Pfizer, Inc., priority 2007, dated 2019) one finds IC50 data, which are given here for 29 molecules.

Where only a bound is given, the exact number is not on record here.

The target of this assay is FAK kinase (catalytic construct FAK(410-689)) (Homo sapiens (Human), UniProt Q05397). Description: FAKcd kinase ELISA (inhibition of poly-glu-tyr phosphorylation by FAK(410-689)). It counts as biochemical. As to conditions: 50 μM final ATP. A general note: In an ELISA, binding on a coated surface is turned into a signal by an enzyme label.
Sequence of FAK kinase (catalytic construct FAK(410-689)) (Q05397 410-689): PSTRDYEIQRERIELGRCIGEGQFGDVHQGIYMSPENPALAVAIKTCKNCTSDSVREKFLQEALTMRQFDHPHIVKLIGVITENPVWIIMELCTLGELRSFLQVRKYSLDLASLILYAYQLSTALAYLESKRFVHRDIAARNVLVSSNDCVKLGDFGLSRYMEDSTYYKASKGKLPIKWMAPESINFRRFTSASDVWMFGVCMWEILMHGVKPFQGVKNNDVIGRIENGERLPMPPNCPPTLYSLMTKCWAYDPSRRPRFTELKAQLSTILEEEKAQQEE
`Cc1cc(C(N)=O)ccc1Nc1ncc(C(F)(F)F)c(NCc2ncccc2N(C)S(C)(=O)=O)n1` [Compound 343, 3-methyl-4-({4-[({3-[methyl(methylsulfonyl)amino]pyridin-2-yl}methyl)amino]-5-(trifluoromethyl)pyrimidin-2-yl}amino)benzamide] yielded an IC50 of 0.993 nM.
The figure for `CN(c1ncccc1CNc1nc(Nc2cccc(CS(N)(=O)=O)c2)ncc1C(F)(F)F)S(C)(=O)=O` [Compound 31, N-[3-({[2-({3-[(aminosulfonyl)methyl]phenyl}amino)-5-(trifluoronnethyl)pyrimidin-4-yl]amino}methyl)pyridin-2-yl]-N-methylmethane-sulfonatnide] is 2.22 nM; for `Cc1ccc(CNc2nc(Nc3ccccc3)ncc2C(F)(F)F)c(NS(C)(=O)=O)c1` [Compound 62, N-[2-({[2-anilino-5-(trifluoromethyl)pyrimidin-4-yl]amino}methyl)-5-methylphenyl]methanesulfonamide] it is 10.3 nM.
The molecule `CC(=O)N1CCC(Nc2ncc(C(F)(F)F)c(NCc3cccnc3N(C)S(C)(=O)=O)n2)CC1` [Compound 45, N-{3-[({2-[(1-acetylpiperidin-4-yl)amino]-5-(trifluoromethyl)pyrimidin-4-yl}amino)methyl)pyridin-2-yl}-N-methylmethane-sulfonamide] came in with an IC50 of 188 nM.
The figure for `CN(C)C(=O)c1ccc(Nc2ncc(C(F)(F)F)c(NCc3ccccc3N(C)S(C)(=O)=O)n2)cc1` [Compound 224, N,N-dimethyl-4-{[4-({2-[methyl(methylsulfonyl)amino]benzyl}amino)-5-(trifluoromethyl)pyrimidin-2-yl]amino}benzamide] is 0.6 nM; for `CN(c1ncccc1CNc1nc(Nc2cccc(C(=O)NC3CCCC3)c2)ncc1C(F)(F)F)S(C)(=O)=O` [Compound 163, N-cyclopentyl-3-({4-[({2-[methyl(methylsulfonyl)amino]pyridin-3-yl}methyl)amino]-5-(trifluoromethyl)pyrimidin-2-yl}amino)benzamide] it is 5.1 nM.
For `CS(=O)(=O)c1cccc(CNc2nc(Nc3ccc(S(N)(=O)=O)cc3)ncc2C(F)(F)F)c1` [Compound 18, 4-{[4-{[3-(methylsulfonyl)benzyl]amino}-5-(trifluoromethyl)pyrimidin-2-yl]amino}benzene-sulfonamide] the value was 13.2 nM; for `CN(C)C(=O)CNC(=O)c1cccc(Nc2ncc(C(F)(F)F)c(NCc3cccnc3N(C)S(C)(=O)=O)n2)c1` [Compound 133, N-[2-(dimethylamino)-2-oxoethyl]-3-({4-[({2-[methyl(methylsulfonyl)amino]pyridin-3-yl}methyl)amino]-5-(trifluoromethyl)pyrimidin-2-yl}amino)benzamide], 1.95 nM; for `CN(c1ncccc1CNc1nc(Nc2ccc(C(=O)NC(CO)CO)cc2)ncc1C(F)(F)F)S(C)(=O)=O` [Compound 264, N-[2-hydroxy-1-(hydroxymethyl)ethyl]-4-({4-[({2-[methyl(methylsulfonyl)amino]pyridin-3-yl}methyl)amino]-5-(trifluoromethyl)pyrimidin-2-yl}amino)benzamide], 4.6 nM.
In the case of `CN(c1ncccc1CNc1nc(Nc2ccc(CNCCO)cc2)ncc1C(F)(F)F)S(C)(=O)=O` [Compound 383, N-{3-[({2-[(4-{[(2-hydroxyethyl)amino]methyl}phenyl)amino]-5-(trifluoromethyl)pyrimidin-4-yl}amino)methyl]pyridin-2-yl}-N-methylmethane-sulfonamide], the IC50 is below 0.595 nM.
As for `Cc1ccc(CNc2nc(Nc3ccccc3)ncc2C(F)(F)F)c(N(C)S(C)(=O)=O)c1` [Compound 65, N-[2-({[2-anilino-5-(trifluoromethyl)pyrimidin-4-yl]amino}methyl)-5-methylphenyl]-N-methylmethanesulfonamide], 0.6 nM corresponded to half-maximal inhibition (IC50).
`CN(c1ncccc1CNc1nc(Nc2ccc(CN)cc2)ncc1C(F)(F)F)S(C)(=O)=O` [Example 4, N-(3-((2-(4-(aminomethyl)phenylamino)-5-(trifluoromethyl)pyrimidin-4-ylamino)methyl)pyridin-2-yl)-N-methylmethanesulfonamide] came in with an IC50 of 0.59 nM.
For `CCn1nccc1Nc1ncc(C(F)(F)F)c(NCc2cccnc2N(C)S(C)(=O)=O)n1` [Compound 91, N-{3-[({2-[(1-ethyl-1H-pyrazol-5-yl)amino]-5-(trifluoromethyl)pyrimidin-4-yl}amino)methyl]pyridin-2-yl}-N-methylmethane-sulfonamide] the value was 188 nM; for `CN(c1ncccc1CNc1nc(Nc2ccc(C(=O)O)cc2)ncc1C(F)(F)F)S(C)(=O)=O` [Compound 43, 4-({4-[({2-[methyl(methylsulfonyl)amino)pyridin-3-yl}methyl)amino]-5-(trifluoromethyl)pyrimidin-2-yl}amino)benzoic acid], 0.6 nM.
The figure for `CN(c1nccnc1CNc1nc(Nc2cc(C(N)=O)ccc2F)ncc1C(F)(F)F)S(C)(=O)=O` [Compound 373, 4-fluoro-3-({4-[({3-[methyl(methylsulfonyl)amino]pyrazin-2-yl}methyl)amino]-5-(trifluoromethyl)pyrimidin-2-yl}amino)benzamide] is 7.49 nM.
As to `CN(c1ncccc1CNc1nc(NC2CCNCC2)ncc1C(F)(F)F)S(C)(=O)=O` [Compound 44, N-methyl-N-[3-({[2-(piperidin-4-ylamino)-5-(trifluoromethyl)pyrimidin-4-yl]amino}methyl)pyridin-2-yl]methanesulfonamide], inhibition was half-maximal at 188 nM (IC50).
As to `Cc1cnc(N(C)S(C)(=O)=O)c(CNc2nc(Nc3ccc(C(N)=O)cc3)ncc2C(F)(F)F)c1` [Compound 82, 4-({4-(({5-methyl-2-[methyl(methylsulfonyl)amino]pyridin-3-yl}methyl)amino]-5-(trifluoromethyl)pyrimidin-2-yl}amino)benzamide], the half-maximal inhibitory concentration (IC50) was found to be 0.6 nM. Compared with the last molecule, the IC50 is about 310-fold lower.
For `CN(c1ncccc1CNc1nc(Nc2ccc(CN3CCOCC3)cc2)ncc1C(F)(F)F)S(C)(=O)=O` [Compound 349, N-methyl-N-[3-({[2-{[4-(morpholin-4-ylmethyl)phenyl]amino}-5-(trifluoromethyl)pyrimidin-4-yl]amino}methyl)pyridin-2-yl]methanesuifonamide], the IC50 was below 0.595 nM.
The figure for `Cc1cccc(NS(C)(=O)=O)c1CNc1nc(Nc2ccc(C(N)=O)cc2)ncc1C(F)(F)F` [Compound 113, 4-{[4-({2-methyl-6-[(methylsulfonyl)amino]benzyl}amino)-5-(trifluoromethyl)pyrimidin-2-yl]amino}benzamide] is 0.6 nM; for `CN(c1ncccc1CNc1nc(Nc2ccc(C(=O)N3CC[C@H](F)C3)cc2)ncc1C(F)(F)F)S(C)(=O)=O` (stereo in doubt) [Compound 235, N-[3-({[2-({4-[(3-fluoropyrrolidin-1-yl)carbonyl]phenyl}amino)-5-(trifluoromethyl)pyrimidin-4-yl]amino}methyl)pyridin-2-yl]-N-methylmethane-sulfonamide] it is 0.6 nM; for `CN(c1ncccc1CNc1nc(Nc2ccc(C(N)=O)cc2)ncc1C(F)(F)F)S(C)(=O)=O` [Compound 20, 4-({4-[({2-[methyl(methylsulfonyl)amino]pyridin-3-yl}methyl)amino]-5-(trifluoromethyl)pyrimidin-2-yl}amino)benzamide] it is 0.6 nM.
For `CC(C)[C@H](CO)NC(=O)c1cccc(Nc2ncc(C(F)(F)F)c(NCc3cccnc3N(C)S(C)(=O)=O)n2)c1` [Compound 161, N-[(1R)-1-(hydroxymethyl)-2-methylpropyl]-3-({4-(({2-[methyl(methylsulfonyl)amino]pyridin-3-yl}methyl)amino]-5-(trifluoromethyl)pyrimidin-2-yl}amino)benzamide] the value was 3.74 nM; for `CCCC1(NC(=O)c2cccc(Nc3ncc(C(F)(F)F)c(NCc4cccnc4N(C)S(C)(=O)=O)n3)c2)CC1` [Compound 209, 3-({4-[({2-[methyl(methylsulfonyl)amino]pyridin-3-yl}methyl)amino]-5-(trifluoromethyl)pyrimidin-2-yl}amino)-N-(1-propylcyclopropyl)benzamide], 3.68 nM; for `CN(C)CCNC(=O)c1cccc(Nc2ncc(C(F)(F)F)c(NCc3cccnc3N(C)S(C)(=O)=O)n2)c1` [Compound 205, N-[2-(dimethylamino)ethyl]-3-({4-[({2-[methyl(methylsulfonyl)amino]pyridin-3-yl}methyl)amino]-5-(trifluoromethyl)pyrimidin-2-yl}amino)benzamide], 3.2 nM.
The figure for `CN(c1cccc(CNc2nc(Nc3ccc(C(N)=O)c(Cl)c3)ncc2C(F)(F)F)c1)S(C)(=O)=O` [Compound 357, 2-chloro-4-{[4-({3-[methyl(methylsulfonyl)amino]benzyl}amino)-5-(trifluoromethyl)pyrimidin-2-yl]amino}benzamide] is 1.47 nM; for `Cc1ccc(CNc2nc(Nc3ccc(C(N)=O)cc3)ncc2C(F)(F)F)c(NS(C)(=O)=O)c1` [Compound 112, 4-{[4-({4-methyl-2-((methylsulfonyl)amino]benzyl}amino)-5-(trifluoromethyl)pyrimidin-2-yl]amino}benzamide] it is 0.6 nM; for `CN(c1nccnc1CNc1nc(Nc2ccc(C(N)=O)cc2)ncc1C(F)(F)F)S(C)(=O)=O` [Compound 71, 4-({4-[({3-[methyl(methylsulfonyl)amino]pyrazin-2-yl}methyl)amino]-5-(trifluoromethyl)pyrimidin-2-yl}amino)benzamide] it is 0.6 nM.
With `CNC(=O)c1ccc(Nc2ncc(C(F)(F)F)c(NCc3nccnc3N(C)S(C)(=O)=O)n2)cc1F` [Compound 370, 2-fluoro-N-methyl-4-({4-(({3-[methyl(methylsulfonyl)amino]pyrazin-2-yl}methyl)amino]-5-(trifluoromethyl)pyrimidin-2-yl}amino)benzamide], 0.6 nM corresponded to half-maximal inhibition (IC50).
`CN(c1nccnc1CNc1nc(Nc2ccccc2)ncc1C(F)(F)F)S(C)(=O)=O` [Compound 75, N-[3-({[2-anilino-5-(trifluoromethyl)pyrimidin-4-yl]amino}methyl)pyrazin-2-yl]-N-methylmethane-sulfonamide] came in with an IC50 of 0.6 nM.

As usually defined, the IC50 is the concentration that inhibits the measured activity by half.
